Source: patent publication US10227370B2, “Heparan sulfate/heparin mimetics with anti-chemokine and anti-inflammatory activity” (California Institute of Technology, priority 2013, dated 2019)

Columns and labels:
Type in all cases: biochemical
FXa = experiment: Chromogenic assay of anti-FXa activity in the presence of ATIII, Example 9
Experimental: All reagents were prepared according to the manufacturer's instructions and incubated at 37° C. for 15 min. Varying concentrations of heparin, low molecular weight heparin, Arixtra® or glycopolymers (0.0005-500 μg/mL; 40 μL) and ATIII (0.04 IU; 40 μL) were added to a microcentrifuge tube, mixed, and incubated at 37° C. for 2 min. To this, FXa (0.32 μg; 40 μL) was added and was incubated at 37° C. for exactly 2 min (stage 1), then FXa chromogenic substrate (48 μmol; 40 μL) was added. Exactly 2 min later (stage 2), the reaction was stopped by introducing citric acid (240 μL; 20 g/L solution). Absorbance at 405 nm was measured on a Uvikon XL spectrophotometer. The sample blank was obtained by mixing the reagents in reverse order from that of the test, i.e. citric acid, FXa substrate, FXa, ATIII, and heparinized sample. The sample blank value was deducted from the absorbance measured for the corresponding assay.

citrated human plasma [1] = experiment: Prothrombin time (PT) analysis; conditions: 150 μg/mL stock, 300 μL in 2.7 mL citrated human plasma; saline control 13.3 s
Experimental: Samples were prepared by mixing 300 μL of the heparin standard or glycopolymer (150 μg/mL) in 0.9% saline with 2.7 mL citrated human plasma. The tube was inverted 3 times to mix the sample thoroughly. Samples were analyzed by the UCLA Clinical & Translational Research Laboratory using a Sysmex® CA-1500 Coagulation Analyzer (Siemens AG, Erlangen, Germany). Clotting time in the absence of an anticoagulant was determined using 0.9% saline solution water (300 μL). Each clotting assay was performed in triplicate.

FIIa = molecular target: T1, FIIa (Homo sapiens, UniProt P01008); experiment: Chromogenic assay of anti-FIIa activity in the presence of ATIII, Example 9; conditions: FIG. 12, FIG. 13B
T1 construct: purchased
Experimental: All reagents were prepared according to the manufacturer's instructions and incubated at 37° C. for 15 min. Varying concentrations of heparin, low molecular weight heparin, or glycopolymers (0.0005-500 μg/mL; 40 μL) and ATIII (0.01 IU; 40 μL) were added to a microcentrifuge tube, mixed, and incubated at 37° C. for 2 min. To this, FIIa (1.2 nkat; 40 μL) was added and was incubated at 37° C. for exactly 2 min (stage 1), then FIIa chromogenic substrate (0.05 mmol; 40 μL) was added. Exactly 2 min later (stage 2), the reaction was stopped by introducing citric acid (240 μL; 20 g/L). Absorbance at 405 nm was measured. The sample blank was obtained by mixing the reagents in reverse order from that of the test, i.e. citric acid, […], ATIII, and heparinized sample. The sample blank value was deducted from the absorbance measured for the corresponding assay.

citrated human plasma [2] = experiment: Activated partial thromboplastin time (APTT) analysis
Experimental: Plasma/anticoagulant samples were prepared by mixing 300 μL of the heparin standard or glycopolymer (150 μg/mL) in 0.9% saline and 2.7 mL of citrated human plasma. The tube was inverted 3 times to mix the sample thoroughly. Samples were analyzed by the UCLA Clinical & Translational Research Laboratory using a Sysmex® CA-1500 Coagulation Analyzer (Siemens AG, Erlangen, Germany). Clotting time in the absence of an anticoagulant was determined using 0.9% saline solution water (300 μl). Each clotting assay was performed in triplicate.

CO[C@H]1O[C@H](COS(=O)(=O)O)[C@@H](O[C@@H]2O[C@@H](C(=O)O)[C@@H](O[C@H]3O[C@H](COS(=O)(=O)O)[C@@H](O[C@@H]4O[C@H](C(=O)O)[C@@H](O[C@H]5O[C@H](COS(=O)(=O)O)[C@@H](O)[C@H](O)[C@H]5NS(=O)(=O)O)[C@H](O)[C@H]4O)[C@H](OS(=O)(=O)O)[C@H]3NS(=O)(=O)O)[C@H](O)[C@H]2OS(=O)(=O)O)[C@H](O)[C@H]1NS(=O)(=O)O [Arixtra] was tested, and the IC50 (FXa) was 11 ± 0.1 nM, the “PT” value (citrated human plasma [1]) was 15.1 ± 0.3 s and the “anti-FIIa activity” value (FIIa) was “no appreciable activity”. The “APTT” value (citrated human plasma [2]; 150 μg/mL stock, 300 μL in 2.7 mL citrated human plasma, saline control 31.2 s) was 78.3 ± 0.4 s and the “effect on APTT and PT for clotting compared to the saline control” value (citrated human plasma [2]; same concentration, citrated human plasma) was “increased only the APTT”.
